In publication PMC10800708, “Efficacies and ADME properties of redox active methylene blue and phenoxazine analogues for use in new antimalarial triple drug combinations with amino-artemisinins” (Frontiers in Pharmacology, 2024):
Values joined by “and” are separate entries in the source; they are usually repeats but may differ in a detail not shown here. Equal entries are not always repeated. Where two headings read alike, the source gives them in different places.

Columns and labels:
[1] = In vivo PK, iv and oral, whole blood; design: species or system C57BL/6 mice; conditions: for Vd / clearance / half-life / Cmax / Tmax: C57BL/6, mouse; for Vd / clearance / half-life / AUC0-∞ / Oral Cmax relative to the IC50 value / BA: mice; for Cmax / Tmax: po, 5 mg/kg; for BA: oral bioavailability
Description: • i. Animals. […] Food and water were available ad libitum. Mice were acclimatised to the experimental environment for 4-5 days prior to initiating the experiments. • ii. Oral drug administration. AD01 and PhX6 were prepared in 100% Millipore […] prepared in an aqueous suspension of 0.5% HPMC (w/v) containing 0.2% Tween 80 (v/v). The weighed compounds were sonicated and vortexed to ensure all solutions were homogenous. […] The total volume per administration was 200 μL. Blood samples were collected post-dose in lithium heparin microvials via tail bleeding at predetermined intervals at 0.5, 1, 3, 5, 8, 10 and 24 h. Samples were gently vortexed and stored at -80°C until analysis. • iii. Intravenous administration. AD01 and PhX6 were prepared in 100% Millipore […] prepared in an organic vehicle consisting of 10% N,N-dimethylacetamide, 30% polyethylene glycol 400 (PEG), 50% polypropylene glycol (PPG) and 10% ethanol (1:3:5:1, v/v) for intravenous (iv) dosing at 10 mg/kg. The total volume of administration was 80 μL. Blood samples were collected post-dose in lithium heparin microvials via tail bleeding at predetermined intervals at 0.16, 0.5, 1, 3, 5, 8, 10 and 24 h. Samples were gently vortexed and stored at -80°C until analysis. • iv. Sample processing and analysis. […] The mixture was vortexed vigorously for 1 min, and 5 μL of the supernatant were injected onto the analytical column following centrifugation (5590 g for 5 min). A Shimadzu HPLC and reverse phase Gemini NX-C18 column coupled to an AB Sciex 3200 Q TRAP MS was operated at unit resolution in the multiple reaction monitoring (MRM) mode as described above. […] Data analysis. Drug concentration versus time plots for each compound were used to determine maximal drug concentration C max, time T max to reach C max, elimination half-life t 1/2 and the area under the concentration-time curve from time zero to infinity, AUC0-inf. From these values the PK parameters clearance CL, volume of distribution Vd and oral bioavailability BA were determined using the non-compartmental analysis Microsoft Excel Add-In PKSolver ([Zhang et al., 2010]).

[2] = Kinetic solubility in PBS; format: physicochemical; conditions: phosphate buffer saline (PBS), aqueous buffer, kinetic from dmso stock
Description: . […] The aqueous mobile phase was water with 0.1% formic acid and the organic mobile phase was acetonitrile with 0.1% formic acid. The gradient method has a flow rate of 0.8 mL/min, with a total run time of 2.5 min starting at 5% organic and increasing to 95% at 1.4 min, holding for 40 s before returning to 5% to re-equilibrate the column. • ii. Lipophilicity. Stock solutions (10 mM) of compounds were diluted to 100 μM in 96-well deep-well plate containing 300 µL of 1-octanol and 300 µL of phosphate buffer at pH 7.4. The plate was agitated on an orbital shaker at 750 rpm for 2 h. The organic and buffer layers of each well were transferred separately to a new analysis plate. The samples were analysed with the HPLC diode array detection as described for kinetic solubility. Samples from both layers were analysed to determine LogD7.4 values. • iii. Passive permeability. A parallel artificial membrane permeation assay (PAMPA) was used to assess the passive permeability of compounds with a 96-well MultiScreen filter plate ([…] pore size, Millipore). The filter plate was precoated with 5% hexadecane in hexane. Stock solutions of compounds were diluted to 1 mM in a donor buffer (pH 6.5). Lucifer yellow was added to the apical wells of the precoated MultiScreen plate containing compound donor solution. The donor buffer solutions were spiked with each test compound (1 mM). The acceptor-buffer solution was prepared by adding 10 μL DMSO to 990 μL acceptor buffer (pH 7.4) and 250 μL were added to the basolateral (acceptor) wells. The donor plate was carefully inserted into the acceptor plate and incubated at room temperature for 4 h. After the incubation period, 50 μL of samples from the acceptor plate were transferred to a round bottom 96-well plate, together with 30 μL of donor buffer for matrix matching. Theoretical equilibrium samples for each test compound were prepared by adding 150 μL of donor solutions to 250 μL acceptor solutions and left at room temperature. These theoretical equilibrium samples represent complete transfer of the compound into the donor well. For the theoretical equilibrium samples, 80 μL were added to the analysis plate. Lastly, 160 μL of the internal standard carbamazepine (0.1 μM) was added to all acceptor and equilibrium samples. A portion of the sample containing Lucifer yellow was analyzed on a BioRad iMarkTM Microplate Absorbance Reader (BioRad, Hercules, CA, United States; […]. Samples were analysed using reverse phase Gemini NX-C18 column (5 μm, 2.1 mm × 50 mm) with a Shimadzu HPLC coupled with an AB Sciex 3200 Q TRAP MS). […]. Plasma stability. Stock solutions of compounds in DMSO (10 mM) were used to spike pooled human plasma. 90 μL of each sample was transferred in duplicate to 6 different wells of a 96-deep well plate. An aliquot of each sample was immediately quenched with ice cold acetonitrile containing the internal standard carbamazepine (0.1 µM), after which the plate was incubated in a water bath (37°C for […]). Aliquots of samples were removed at 5, 15, 40, 60 and 180 min and quenched with ice cold acetonitrile. After samples of the final time point were precipitated, the supernatant was transferred to a round bottom 96-well plate for analysis by LC-MS/MS using a reverse phase Gemini NX-C18 column (5 μm, 2.1 mm × 50 mm) with a Shimadzu HPLC coupled with an AB Sciex 3200 Q TRAP MS) operated at unit resolution in the multiple reaction monitoring (MRM) mode. The aqueous phase consisted of water with 0.1% formic acid and the organic mobile phase consisted of methanol and acetonitrile (1:1, (v/v)) with 0.1% formic acid. […]. The peak area ratios were used to calculate the amount of parent compound remaining and t1/2 in plasma, using the following equations.

[3] = test system: Chinese Hamster Ovary (CHO) cell line, CHO-K1; test: MTT cytotoxicity assay; format: cell-based; conditions: for IC50: Cricetulus griseus, CHO cells, MTT; for Selectivity index CHO/resistant Pf strain: cytotoxicity IC50/activity IC50, CHO/DD2; for Selectivity index CHO/sensitive Pf strain: cytotoxicity IC50/activity IC50, CHO/NF54
Description: Cytotoxicity assays were conducted against the Chinese Hamster Ovary (CHO) cell line, ATCC CCL-61, strain CHO-K1. […] Cells were grown at 37°C in a humidified atmosphere of 5% CO2 and maintained by passage. Cells lines were seeded in 96-well microtitre plates at 10^4 cells/well in cell medium. […] DMSO (100 µL) was added to dissolve the MTT formazan precipitate, and the plates were gently agitated for 2 min to ensure homogeneity. Absorbance was measured at 540 nm using a Turner BioSystems, Inc. ModulusTM II Microplate Reader. The data were analyzed by nonlinear regression analysis using the GraphPad PRISM version 5.00 program to determine the IC50 of each compound.

[4] = 10 mg/kg, intravenous, whole blood
[5] = whole blood, iv, 10 mg/kg, intravenous, whole blood, read-out: t1/2 (converted)
[6] = oral gavage: AD01 4.6, PhX6 4.5, DpNEt 5 mg/kg
[7] = PBS pH 2, read-out: Predicted solubility pH 2
[8] = PBS pH 6.5, read-out: Predicted solubility pH 6.5
[9] = PBS pH 7.4, read-out: Predicted solubility pH 7.4

SMILES	Vd [1, 4]	clearance [1, 4]	half-life [1, 5]	Cmax ([1]; whole blood)	Tmax ([1]; whole blood)	AUC0-∞ ([1]; intravenous, whole blood)	Oral Cmax relative to the IC50 value [1]	BA [1]	AUC0-∞ [1, 6]	solubility at 2 h [2, 7]	solubility at 2 h [2, 8]	solubility at 2 h [2, 9]	IC50 [3]	Selectivity index CHO/resistant Pf strain [3]	Selectivity index CHO/sensitive Pf strain [3]	half-life ([1]; whole blood, two-compartment behaviour, read-out: Distribution half-life)
CCN(CC)c1ccc2nc3ccc(=[N+](CC)CC)cc-3sc2c1 [AD01]	16.2 ± 1.73 L/kg	74.4 ± 6.68 mL/min/kg	151 ± 4.2 min	250 ± 50 nM	52.8 ± 7.8 min	186 ± 15 µmol·min/L	~10 fold	15% and 15 ± 4%	101 ± 19 µmol·min/L	> 150 µM	> 150 µM	> 150 µM	74 ± 9.4 µM	>1,000	>1,000	–
CCN(CC)c1ccc2nc3c4ccccc4/c(=N\c4ccccn4)cc-3oc2c1 [PhX6]	14.9 ± 2.09 L/kg	21.5 ± 1.76 mL/min/kg	478 ± 43.8 min	3450 ± 680 nM	48 ± 7.2 min	540 ± 44 µmol·min/L	~100 fold	60% and 60 ± 12%	1,150 ± 216 min∙µmol/L	> 150 µM	< 5 µM	< 5 µM	192 ± 4.6 µM	>1,000	>1,000	26 min
